Assay results taken from PMC12431657, “Discovery and mechanistic insights of dibenzoylmethane as a broad spectrum inhibitor of coronavirus” (PLOS Pathogens, 2025).
Values joined by “and” are separate entries in the source; they are usually repeats but may differ in a detail not shown here. Identical values can stand only once. Counter-ions that a name gives are not always drawn. Like-named read-outs stand apart in the source and are kept apart here.

Key:
HCoV-OC43 [1] = test: microbe, parasite or virus in culture; format: cell-based; conditions: for inhibition at 10 µM: Betacoronavirus 1, OC43, 24 h, read-out: OC43 Inhibition rate
HCoV-OC43 [2] = test: Time-of-addition assay; format: cell-based
Procedure: To obtain further insight into the stage at which DBM inhibits the replication of HCoV-OC43 and other HCoVs, RD cells were incubated with compounds, including DBM, remdesivir (RDV), and chloroquine (CQ), at different stages of viral infection. Viral RNA from the supernatant was extracted and quantitatively analysed via qRT-PCR. […] For the viral binding assay, cells were cultured in the presence or absence of DBM at different concentrations for 1 hour before being infected with HCoV-OC43 at an MOI of 50, and then were placed on ice for 2 hours for the viral particles to bind to the membrane of the host cells, followed by washing with PBS. […] In addition to binding to receptors from host cells, the spike proteins of HCoV-OC43 could also trigger membrane fusion when HCoV-OC43 spike plasmid-transfected 293T cells were seeded together with RD cells as target cells, and the addition of DBM had no effect on this process (S5C Fig). To examine whether DBM inhibits viral internalisation, cells were inoculated with HCoV-OC43 for 1 hour on ice before being treated with either DBM or DMSO, and CQ was included to prevent endosomal acidification. Subsequently, HCoV-OC43 nucleocapsid proteins were immunostained with CoraLite Plus 488 to assess viral internalisation via confocal microscopy. […] To determine whether DBM influences viral release, we quantified viral RNA both intracellularly and in the supernatant.
To evaluate the effects of DBM on the life cycle of HCoV-229E and HCoV-OC43, fresh culture medium containing 0.6 μM DBM, 0.1 μM remdesivir (RDV), or 10 μM chloroquine (CQ) was supplemented with preseeded cells at different time points relative to infection (entry group: 0 to –2 hours; postinfection group: 2–12 hours; and full-time group: 0 to –12 hours). DMSO served as the control. At 24 hours postinfection, the number of intracellular virus RNA copies was quantified by qRT-PCR as previously described.

HCoV-OC43 [3] = system: HCoV-OC43
HCoV-229E [4] = test: Antiviral activity in vitro, qRT-PCR, HCoV-229E in MRC-5 cells; format: cell-based; conditions: for EC50: Human coronavirus 229E, MRC5, 24 h, read-out: EC50 HCoV-229E (MRC-5)
HCoV-OC43 [5] = test: Antiviral activity in vitro, qRT-PCR, HCoV-OC43 in Huh-7 cells; format: cell-based; conditions: for EC50: Betacoronavirus 1, OC43, Huh-7, 24 h, read-out: EC50 HCoV-OC43 (Huh-7); for HCoV-OC43, Huh-7: inhibition at the concentration (Fig2B): replicates
HCoV-229E [6] = test: Antiviral activity in vitro, viral RNA copies by qRT-PCR, HCoV-229E in Huh-7 cells; format: cell-based; conditions: for EC50: Human coronavirus 229E, Huh-7, 24 h, read-out: EC50 HCoV-229E (Huh-7)
[7] = erythromycin estolate exceeding 300 mpk, veratramine exceeding 10 mpk; cited from earlier work
HCoV-OC43 [8] = test: Antiviral activity in vitro, qRT-PCR, HCoV-OC43 in RD cells; format: cell-based; conditions: for EC50: Betacoronavirus 1, OC43, RD, 24 h, read-out: EC50 HCoV-OC43 (RD)
HCoV-229E [9] = test: HTS luminescent cell viability assay, HCoV-229E infection; format: cell-based; conditions: for inhibition at 10 µM: Human coronavirus 229E, 24 h, read-out: 229E Inhibition rate
RD cells = format: cell-based
HCoV-OC43 [10] = test: HCoV-OC43 replication in siRNA-transfected cells; format: cell-based; conditions: replicates
[11] = compound 10 μM, 24 h postinfection
[12] = conc. 0.1 (unit not given), replicates
[13] = conc. 0.2 (unit not given), replicates
[14] = conc. 0.7 (unit not given), replicates
[15] = conc. 2.2 (unit not given), replicates
[16] = conc. 6.7 (unit not given), replicates
[17] = conc. 20 (unit not given), replicates

CC[C@@]1(O)C(=O)OCc2c1cc1n(c2=O)Cc2cc3c(N)cccc3nc2-1 [9-amino-CPT]
OC43 Inhibition rate (HCoV-OC43 [1]; [11]): -9.5%

CCN(CC)CCCC(C)Nc1ccnc2cc(Cl)ccc12 (stereo not drawn) [CQ]
time-of-addition, viral inhibition (HCoV-OC43 [2]): 99.3

CCC(=O)O[C@H]1[C@H](O[C@@H]2[C@@H](C)[C@H](O[C@H]3C[C@@](C)(OC)[C@@H](O)[C@H](C)O3)[C@@H](C)C(=O)O[C@H](CC)[C@@](C)(O)[C@H](O)[C@@H](C)C(=O)[C@H](C)C[C@@]2(C)O)O[C@H](C)C[C@@H]1N(C)C [Erythromycin estolate, erythromycin estolate, reference compound]
number of viral RNA copies in HCoV-OC43-infected mice (HCoV-OC43 [3]; columbianadin 50 mpk QD, erythromycin estolate 300 mpk QD): did not significantly reduce | EC50 (HCoV-229E [4]): 9210 nM | HCoV-229E, MRC-5: inhibition at the concentration (Fig2B) (HCoV-229E [4]; [12]): 0.6 and 0.5 and 1.3 | HCoV-229E, MRC-5: inhibition at the concentration (Fig2B) (HCoV-229E [4]; [13]): 18.6 and 2.4 and -3.2 | HCoV-229E, MRC-5: inhibition at the concentration (Fig2B) (HCoV-229E [4]; [14]): 2.2 and 1.5 and 26.7 | HCoV-229E, MRC-5: inhibition at the concentration (Fig2B) (HCoV-229E [4]; [15]): 3.2 and -1.4 and 0.1 | HCoV-229E, MRC-5: inhibition at the concentration (Fig2B) (HCoV-229E [4]; [16]): 0.7 and 0.9 and 1.2 | HCoV-229E, MRC-5: inhibition at the concentration (Fig2B) (HCoV-229E [4]; conc. 20.0 (unit not given), replicates): 90.1 and 91.7 and 86.2 | EC50 (HCoV-OC43 [5]): 730 nM | HCoV-OC43, Huh-7: inhibition at the concentration (Fig2B) (HCoV-OC43 [5]; conc. 0.2 (unit not given)): 18.4 and 11.5 and -3.5 | HCoV-OC43, Huh-7: inhibition at the concentration (Fig2B) (HCoV-OC43 [5]; conc. 0.7 (unit not given)): 62.9 and 63.5 and 57.4 | HCoV-OC43, Huh-7: inhibition at the concentration (Fig2B) (HCoV-OC43 [5]; conc. 2.2 (unit not given)): 73.5 and 73.6 and 72.3 | HCoV-OC43, Huh-7: inhibition at the concentration (Fig2B) (HCoV-OC43 [5]; conc. 6.7 (unit not given)): 95.6 and 95.5 and 95.7 | HCoV-OC43, Huh-7: inhibition at the concentration (Fig2B) (HCoV-OC43 [5]; conc. 20.0 (unit not given)): 98.3 (2×) and 98.1 | EC50 (HCoV-229E [6]): 3040 nM | EC50 (229E, Huh-7): inhibition at the concentration (HCoV-229E [6]; [12]): 56.8 and 60.1 and 43.4 | EC50 (229E, Huh-7): inhibition at the concentration (HCoV-229E [6]; [13]): 31.4 and 41.8 and 52.9 | EC50 (229E, Huh-7): inhibition at the concentration (HCoV-229E [6]; [14]): 61.1 and 42.4 and 25.7 | EC50 (229E, Huh-7): inhibition at the concentration (HCoV-229E [6]; [15]): 61.7 and 57.1 and 74.9 | EC50 (229E, Huh-7): inhibition at the concentration (HCoV-229E [6]; [16]): 79.9 and 80.4 and 68.3 | EC50 (229E, Huh-7): inhibition at the concentration (HCoV-229E [6]; [17]): 82.8 and 90.2 and 91.5 | safe use in antitumour mouse models [7]: safely used | EC50 (HCoV-OC43 [8]): 460 nM | EC50 (OC43, RD): inhibition at the concentration (HCoV-OC43 [8]; [12]): -62.2 and -76.2 (2×) | EC50 (OC43, RD): inhibition at the concentration (HCoV-OC43 [8]; [13]): 31.5 and 23.3 and 28 | EC50 (OC43, RD): inhibition at the concentration (HCoV-OC43 [8]; [14]): 73.9 and 79.2 and 79.3 | EC50 (OC43, RD): inhibition at the concentration (HCoV-OC43 [8]; [15]): 69.6 and 71.7 and 71.9 | EC50 (OC43, RD): inhibition at the concentration (HCoV-OC43 [8]; [16]): 83.9 and 85 and 84.5 | EC50 (OC43, RD): inhibition at the concentration (HCoV-OC43 [8]; [17]): 98.4 and 98.5

CC1=C[C@]23C(=O)[C@@H](C=C(COC(=O)c4ccccc4)[C@@H](O)[C@]2(O)[C@H]1OC(=O)c1ccccc1)[C@H]1[C@@H](C[C@H]3C)C1(C)C [Ingenol 3,20-dibenzoate, ingenol 3,20-dibenzoate]
Body weight changes (HCoV-OC43 [3]; Ingenol 3,20-dibenzoate 10 mpk oral QD, day 2, one value per mouse): DIED | HCoV-229E, MRC-5: inhibition at the concentration (Fig2B) (HCoV-229E [4]): 90.2 | EC50 (HCoV-229E [4]): 100 nM | EC50 (HCoV-OC43 [5]): < 80 nM | EC50 (HCoV-229E [6]): < 80 nM | EC50 (HCoV-OC43 [8]): < 80 nM

CO[C@@H]1C[C@@H](C[C@H]2CC[C@H](C)[C@H]([C@@H](C)C(=O)O)O2)O[C@]2(O[C@](C)([C@H]3CC[C@@](C)([C@@H]4O[C@@H]([C@H]5O[C@@](O)(CO)[C@H](C)C[C@@H]5C)C[C@@H]4C)O3)C[C@H]2C)[C@@H]1C [Nigericin (sodium salt)]
OC43 Inhibition rate (HCoV-OC43 [1]; 10 µM): 8.7% | 229E Inhibition rate (HCoV-229E [9]; 10 µM): 0.0%

O=C(O)c1cc(C(=O)O)c2c(n1)C(=O)C(=O)c1cc(C(=O)O)[nH]c1-2 [Pyrroloquinoline quinone (disodium salt)]
OC43 Inhibition rate (HCoV-OC43 [1]; [11]): -0.3% | 229E Inhibition rate (HCoV-229E [9]; [11]): 4.0%

O=C(O)c1cc(C(=O)O)c2c(n1)C(=O)C(=O)c1cc(C(=O)O)[nH]c1-2 [Pyrroloquinoline quinone]
inhibition at 10 µM (HCoV-OC43 [1]): -0.2% | inhibition at 10 µM (HCoV-229E [9]): 4.2%

Nc1ncnc2c1ccn2[C@@H]1O[C@H](CO)[C@@H](O)[C@H]1O [Tubercidin]
inhibition at 10 µM (HCoV-OC43 [1]): 1.9% | inhibition at 10 µM (HCoV-229E [9]): 12.9%

Cc1c([C@H](C)[C@@H]2NC[C@@H](C)C[C@H]2O)ccc2c1C[C@H]1[C@H]2CC=C2C[C@@H](O)CC[C@@]21C [Veratramine, veratramine]
Body weight changes (HCoV-OC43 [3]; mouse, in vivo): 98.5 | EC50 (HCoV-229E [4]): 600 nM | EC50 (HCoV-OC43 [5]): < 80 nM | EC50 (229E, Huh-7): inhibition at the concentration (HCoV-229E [6]): 93.4 | EC50 (HCoV-229E [6]): < 80 nM | safe use in antitumour mouse models [7]: safely used | EC50 (OC43, RD): inhibition at the concentration (HCoV-OC43 [8]): 99.8 and 99.2 | EC50 (HCoV-OC43 [8]): 250 nM

ALG11-2 (sense GGUGCCUGUGCAAGUUGUUTT; antisense AACAACUUGCACAGGCACCTT; chemistry not given here)
Relative mRNA content of the targeted gene after siRNA knockdown (Fig5D) (RD cells): 0.16 and 0.22 and 0.13

CASP3-1 (sense CCGACAAGCUUGAAUUUAUTT; antisense AUAAAUUCAAGCUUGUCGGTT; chemistry not given here)
HCoV-OC43 replication in siRNA-transfected cells, inhibition (HCoV-OC43 [10]): -3.8 and -7.6 and -9.9 and 15.1 and 8.0 and 7.0

CASP3-2 (sense CCCUGGACAACAGUUAUAATT; antisense UUAUAACUGUUGUCCAGGGTT; chemistry not given here)
Relative mRNA content following siRNA knockdown (RD cells): 0.000229 and 0.000196 and 0.000194 and 0.000282 and 0.000327 and 0.000307 | HCoV-OC43 replication in siRNA-transfected cells, inhibition (HCoV-OC43 [10]): 3.7 and -8.9 and -0.3 and 15.3 and 18.4 and 14.9

CASP7-1 (sense GUGCCAAGAUGCAAGAUCUTT; antisense AGAUCUUGCAUCUUGGCACTT; chemistry not given here)
Relative mRNA content following siRNA knockdown (RD cells): 0.04453 and 0.02767 and 0.03038 and 0.03195 and 0.02491 and 0.0301 | HCoV-OC43 replication in siRNA-transfected cells, inhibition (HCoV-OC43 [10]): -1.2 and -4.0 and -5.1 and 6.9 and -3.2 and 8.5

CASP7-2 (sense GAGGAUUCAGCAAAUGAAGTT; antisense CUUCAUUUGCUGAAUCCUCTT; chemistry not given here)
Relative mRNA content following siRNA knockdown (RD cells): 0.04124 and 0.03671 and 0.03839 and 0.05589 and 0.05554 and 0.05883 | HCoV-OC43 replication in siRNA-transfected cells, inhibition (HCoV-OC43 [10]): -52.2 and -54.8 and -44.2 and 4.9 and 14.1

CYP1A1-2 (sense GGGUUUGACACAGUCACAATT; antisense UUGUGACUGUGUCAAACCCTT; chemistry not given here)
Relative mRNA content of the targeted gene after siRNA knockdown (Fig5D) (RD cells): 0.00

ELAC2-2 (sense GCAGAGGGAUGCCAUUAUUTT; antisense AAUAAUGGCAUCCCUCUGCTT; chemistry not given here)
Relative mRNA content of the targeted gene after siRNA knockdown (Fig5D) (RD cells): 0.20 and 0.16 and 0.32

IDH3G-1 (sense GCAAGAGUAUCGCCAAUAATT; antisense UUAUUGGCGAUACUCUUGCTT; chemistry not given here)
Relative mRNA content of the targeted gene after siRNA knockdown (Fig5D) (RD cells): 0.00

IDH3G-2 (sense GCACGUGAGUUCCAAUGCUTT; antisense AGCAUUGGAACUCACGUGCTT; chemistry not given here)
Relative mRNA content of the targeted gene after siRNA knockdown (Fig5D) (RD cells): 0.00

UBP1-1 (sense GCACCCACCCUUUCAGUAUTT; antisense AUACUGAAAGGGUGGGUGCTT; chemistry not given here)
Relative mRNA content of the targeted gene after siRNA knockdown (Fig5D) (RD cells): 0.42 and 0.21 and 0.33
